# Measured values as given in US11058668B2 (EIDOS THERAPEUTICS, INC., priority 2018, dated 2021).
# Like-named read-outs stand apart in the source and are kept apart here.
# How the values were obtained:
# TTR [1] = target: T1, TTR (Canis lupus familiaris, UniProt A0A8I3NFK0); test: 7-day repeat oral dosing in dogs, TTR occupancy by FPE; format: in vivo, beagle dog
# T1 construct: from tissue; host or cells: serum of orally dosed beagle dogs
# Description: FPE assay for binding TTR in buffer and human or dog serum. […] The FPE probe is a thioester TTR ligand that is not fluorescent by itself, however upon binding to the T4 binding site of TTR it covalently modifies lysine 15 (K15), creating a fluorescent conjugate. Ligands that bind to the T4 site of TTR will decrease FPE probe binding as observed by lower fluorescence. The FPE assay was also adapted for use with dog serum. FPE with TTR in buffer: An aliquot of 98 μL of TTR in PBS (pH 7.4, final concentration: 2.5 μM) was mixed with 1 μL of test compounds (2.5 μM) and 1 μL of FPE probe (0.18 mM stock solution in DMSO: final concentration: 1.8 μM). The change in fluorescence (λex=328 nm and λem=384 nm) were monitored using a microplate spectrophotometer reader (SpectraMax M5) for 6 hr at rt. […] The change in fluorescence (λex=328 nm and λem=384 nm) were monitored using a microplate spectrophotometer reader (SpectraMax M5) for 6 hr at rt.
# Blood (approximately 1.5 mL) was collected from a jugular vein into serum separator tubes on study day 1 (predose D1), pre-dose study day 7 (predose D7), and at 1 hr post-dose study day 7 (postdose D7). These serum samples were analyzed for their TTR occupancy using the FPE assay described above.
# TTR [2] = target: T2, TTR (Macaca fascicularis, UniProt Q8HXW1); test: Single dose study in monkeys, FPE assay on serum; format: in vivo, cynomolgus monkey
# T2 construct: from tissue; host or cells: serum of dosed male cynomolgus monkeys
# Description: There was a washout period of two weeks between the two phases. Blood samples were collected at pre-dose and at approximately 0.083 (IV only), 0.25, 0.5, 1, 2, 4, 8, 12, 24, 48, 72 and 96 hours post-dose. Plasma samples were assayed for AG10 and AG10 acylglucuronide and serum was tested in FPE assay.
# [3] = target: human serum albumin (HSA) (Homo sapiens, UniProt P02768); test: Gel filtration and dialysis binding to human serum albumin; design: albumin from human serum; Sigma Aldrich, catalog no.: A3782; purchased Sigma Aldrich A3782; host or cells: human serum; details: 30 μM compound, 600 μM albumin
# Description: The concentration of HSA (i.e. concentration at time zero) was also determined using NanoDrop™ (based on calibration curves of known HAS concentrations). […] The concentration of test compounds in these fractions (i.e. conc. at time zero) was evaluated using HPLC (based on calibration curves of known concentration of test compounds). 500 μL of each HSA/test compound samples was then added to a Slide-A-Lyzer Dialysis Cassette G2 (3.5K MWCO, Thermo Scientific, catalog no. P187722). The dialysis Cassettes were placed in 100 ml of assay buffer and stirred at room temperature. After 24 hr, the samples were removed from dialysis cassette and the volume was measured. The concentration of HAS and test compounds were determined using NanoDrop™ and HPLC as described above.
# [4] = Phase 1 (AG10-001) single ascending dose pharmacokinetics; format: in vivo, human; details: for Cmax / Tmax / concentration at 24 hr / AUC(0-t) / AUC(0-inf) / half-life: human, plasma; for concentration at 24 hr: read-out: C24
# Description: Quantitation was performed using a weighted 1/x^2 linear least squares regression analysis generated from calibration standards prepared on the day of extraction.
# One of the SAD cohorts received two 300 mg doses, one under fasted conditions and the other following a high fat test meal after an appropriate washout period.
# [5] = both sexes, oral, 300 mg, SAD Cohort 3, 300 mg, Fasted, geometric mean
# [6] = both sexes, oral, 300 mg, SAD Cohort 3, 300 mg, Fed (high fat test meal), geometric mean
# [7] = both sexes, po, 50 mg, single oral dose 50 mg AG10 HCl, healthy subjects, geometric mean ± SD
# [8] = both sexes, po, 150 mg, single oral dose 150 mg AG10 HCl, healthy subjects, geometric mean ± SD
# [9] = both sexes, po, 300 mg, single oral dose 300 mg AG10 HCl, healthy subjects, geometric mean ± SD
# [10] = both sexes, po, 800 mg, single oral dose 800 mg AG10 HCl, healthy subjects, geometric mean ± SD
# Chain of human serum albumin (HSA) (P02768 25-609): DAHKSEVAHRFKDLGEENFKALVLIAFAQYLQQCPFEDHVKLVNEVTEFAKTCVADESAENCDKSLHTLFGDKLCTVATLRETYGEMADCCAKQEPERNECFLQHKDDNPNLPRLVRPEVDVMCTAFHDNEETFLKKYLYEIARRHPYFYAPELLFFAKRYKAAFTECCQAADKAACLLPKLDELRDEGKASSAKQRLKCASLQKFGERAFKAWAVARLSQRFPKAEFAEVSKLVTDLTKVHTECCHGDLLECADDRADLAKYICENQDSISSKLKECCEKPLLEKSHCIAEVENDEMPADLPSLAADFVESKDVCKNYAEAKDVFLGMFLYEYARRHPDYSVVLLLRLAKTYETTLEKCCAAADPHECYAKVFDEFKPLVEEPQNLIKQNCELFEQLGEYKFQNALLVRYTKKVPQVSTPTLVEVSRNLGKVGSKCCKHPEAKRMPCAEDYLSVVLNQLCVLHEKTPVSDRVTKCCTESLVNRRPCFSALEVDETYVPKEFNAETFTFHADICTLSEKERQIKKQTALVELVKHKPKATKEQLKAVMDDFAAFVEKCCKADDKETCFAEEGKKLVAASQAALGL
smiles,measurement,setting,value
"Cc1n[nH]c(C)c1CCCOc1cc(C(=O)O)ccc1F [AG10, 3-(3-(3,5-dimethyl-1H-pyrazol-4-yl)propoxy)-4-fluorobenzoic acid]",TTR occupancy at the steady state trough,"TTR [1]; 50, 100, 200 mg/kg/d oral, day 7 pre-dose",81-94%
same,TTR occupancy at steady state Cmax,"TTR [1]; all AG10 treated groups, day 7 post-dose (1 hr)",> 97%
same,binding to TTR in serum (FPE assay),"TTR [2]; 5 mg/kg per oral, 3 male monkeys",effectively binds to TTR in monkey serum
same,TTR stabilization versus dose (FPE assay),TTR [2]; orally administered,stabilized TTR in a dose dependent manner
same,concentration bound to HSA following dialysis vs buffer for 24 hr,[3],7.8 ± 0.1 µM
same,concentration bound to albumin at time 0 (immediately after gel filtration),[3],18.3 ± 0.98 µM
same,food effect on the pharmacokinetics,"[4]; 300 mg, fed versus fasted state",minimal food effect
same,mean Tmax,"[4]; SAD cohorts 1-4, 50-800 mg AG10 HCl oral",under one
same,Cmax,[4]; [5],15.1 µM
same,Tmax,[4]; [5],0.707 h
same,concentration at 24 hr,[4]; [5],2.19 µM
same,Cmax,[4]; [6],10.2 µM
same,Tmax,[4]; [6],1.59 h
same,AUC(0-t),"[4]; both sexes, oral, 300 mg, SAD Cohort 3, 300 mg, Fed (high fat test meal), geometric mean, read-out: AUC0-24",111 µM·h
same,concentration at 24 hr,[4]; [6],2.69 µM
same,AUC(0-inf),"[4]; both sexes, po, 50 mg",97.1 ± 12.1 µM·h
same,Cmax,[4]; [7],7.2 ± 0.72 µM
same,Tmax,[4]; [7],0.891 ± 0.736 h
same,AUC(0-t),"[4]; both sexes, po, 50 mg, single oral dose 50 mg AG10 HCl, healthy subjects, geometric mean ± SD, read-out: AUC0-24",58.9 ± 4.09 µM·h
same,AUC(0-t),"[4]; both sexes, po, 50 mg, single oral dose 50 mg AG10 HCl, healthy subjects, geometric mean ± SD, read-out: AUClast",95 ± 11.8 µM·h
same,concentration at 24 hr,[4]; [7],1.05 ± 0.13 µM
same,half-life,"[4]; both sexes, po, 50 mg, read-out: T1/2 (converted)",25 ± 2.91 h
same,AUC(0-inf),"[4]; both sexes, po, 150 mg",168 ± 46.8 µM·h
same,Cmax,[4]; [8],11.3 ± 4.76 µM
same,Tmax,[4]; [8],0.849 ± 0.97 h
same,AUC(0-t),"[4]; both sexes, po, 150 mg, single oral dose 150 mg AG10 HCl, healthy subjects, geometric mean ± SD, read-out: AUC0-24",93 ± 16.8 µM·h
same,AUC(0-t),"[4]; both sexes, po, 150 mg, single oral dose 150 mg AG10 HCl, healthy subjects, geometric mean ± SD, read-out: AUClast",166 ± 46 µM·h
same,concentration at 24 hr,[4]; [8],1.78 ± 0.465 µM
same,half-life,"[4]; both sexes, po, 150 mg, read-out: T1/2 (converted)",25.1 ± 3.58 h
same,AUC(0-inf),"[4]; both sexes, po, 300 mg",191 ± 77 µM·h
same,Cmax,[4]; [9],15.1 ± 3.6 µM
same,Tmax,[4]; [9],0.707 ± 0.274 h
same,AUC(0-t),"[4]; both sexes, po, 300 mg, single oral dose 300 mg AG10 HCl, healthy subjects, geometric mean ± SD, read-out: AUC0-24",100 ± 9.76 µM·h
same,AUC(0-t),"[4]; both sexes, po, 300 mg, single oral dose 300 mg AG10 HCl, healthy subjects, geometric mean ± SD, read-out: AUClast",186 ± 73.8 µM·h
same,concentration at 24 hr,[4]; [9],2.19 ± 0.435 µM
same,half-life,"[4]; both sexes, po, 300 mg, read-out: T1/2 (converted)",22 ± 5.94 h
same,AUC(0-inf),"[4]; both sexes, po, 800 mg",414 ± 87.5 µM·h
same,Cmax,[4]; [10],37.8 ± 11.3 µM
same,Tmax,[4]; [10],0.794 ± 0.258 h
same,AUC(0-t),"[4]; both sexes, po, 800 mg, single oral dose 800 mg AG10 HCl, healthy subjects, geometric mean ± SD, read-out: AUC0-24",176 ± 27.7 µM·h
same,AUC(0-t),"[4]; both sexes, po, 800 mg, single oral dose 800 mg AG10 HCl, healthy subjects, geometric mean ± SD, read-out: AUClast",410 ± 81.7 µM·h
same,concentration at 24 hr,[4]; [10],4.51 ± 0.565 µM
same,half-life,"[4]; both sexes, po, 800 mg, read-out: T1/2 (converted)",26.8 ± 8.48 h
same,half-life,"[4]; both sexes, po, read-out: elimination half-life",22 to 27 h
same,AUC(0-t),"[4]; oral, 300 mg, SAD Cohort 3, 300 mg, Fasted, geometric mean, read-out: AUC0-24",99.6 µM·h
